What was measured:
Assay in all cases: 3' UTR reporter interaction score (median-centred robust z-score of log2 firefly/Renilla activity); higher = less repression of the 3' UTR reporter
Details in all cases: HEK293T; 48 h
RB1 = tested on: RB1
How it was run: (§1)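 Firefly and Renilla luciferase activities were read 48 h post-transfection in HEK293T cells (10,000/well, 96-well plates). The cells had received 100 ng firefly luc2P reporter bearing the gene's 3' UTR, 20 ng Renilla pRL-TK control and 2.5 pmol miRNA mimic via DharmaFECT Duo. The interaction score, where more negative means interaction, is a per-plate robust z-score (median, median absolute deviation) of the log firefly/Renilla ratio, median-centred per miRNA and averaged over at least two independent screens.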

MYCN = tested on: MYCN
How it was run: as §1

MYT1L = tested on: MYT1L
How it was run: as §1

PHF6 = tested on: PHF6
How it was run: as §1

MYB = tested on: MYB
How it was run: as §1

BRCA2 = tested on: BRCA2
How it was run: as §1

ZEB2 = tested on: ZEB2
How it was run: as §1

PHOX2B = tested on: PHOX2B
How it was run: as §1

HRAS = tested on: HRAS
How it was run: as §1

NOTCH1 = tested on: NOTCH1
How it was run: as §1

MYC = tested on: MYC
How it was run: as §1

FBXW7 = tested on: FBXW7
How it was run: as §1

TP53 = tested on: TP53
How it was run: as §1

EZH2 = tested on: EZH2
How it was run: as §1

Sequence | 3' UTR reporter interaction score (RB1) | 3' UTR reporter interaction score (MYCN) | 3' UTR reporter interaction score (MYT1L) | 3' UTR reporter interaction score (PHF6) | 3' UTR reporter interaction score (MYB) | 3' UTR reporter interaction score (BRCA2) | 3' UTR reporter interaction score (ZEB2) | 3' UTR reporter interaction score (PHOX2B) | 3' UTR reporter interaction score (HRAS) | 3' UTR reporter interaction score (NOTCH1) | 3' UTR reporter interaction score (MYC) | 3' UTR reporter interaction score (FBXW7) | 3' UTR reporter interaction score (TP53) | 3' UTR reporter interaction score (EZH2)
UUAAGACUUGCAGUGAUGUUUAA | -2.53 | 0.438 | -0.158 | -1.09 | -1.14 | 0.155 | -4.05 | -0.221 | 0.424 | 0.344 | -0.159 | 1.23 | 1.42 | 0.772
UACCCUGUAGAACCGAAUUUGU | -0.148 | -0.116 | -2.07 | 0.333 | 0.245 | 0.189 | -1.8 | -0.86 | 0.849 | -1.66 | 0.546 | -0.174 | -0.546 | 1.07
GCGACCCAUACUUGGUUUCAG | -1.26 | 0.527 | -5.03e-17 | -1.74 | 0.445 | 0.00941 | -0.392 | -1.24 | -0.348 | 0.351 | -0.469 | 0.104 | -0.0561 | 1.08
UUCACAGGGAGGUGUCAUUUAU | 0.105 | 1.06 | 0.885 | -1.72 | -0.536 | -0.226 | -0.846 | -0.65 | 0.0679 | 0.269 | 0.377 | -3.1 | 0.0668 | 1.32
AGAUCGACCGUGUUAUAUUCGC | 0.976 | 0.592 | -1.38 | 0.689 | -1.19 | 0.451 | -1.03 | -0.0818 | 0.57 | 0.965 | 0.022 | -0.751 | -2.1 | 0.0389
UAUACAAGGGCAAGCUCUCUGU | 0.0344 | -1.08 | 0.075 | 0.0525 | 0.159 | -0.0857 | -0.506 | 0.912 | 0.186 | -0.0974 | 0.32 | 0.144 | -0.221 | -0.739
AGCAGCAUUGUACAGGGCUAUGA | -1.15 | 0.0597 | -1.07 | 2.88 | -1.03 | 0.461 | 0.465 | 1.07 | -0.255 | -0.182 | 1.13 | -0.997 | 0.727 | -0.463
GCUAGUCCUGACUCAGCCAGU | 0.4 | 0.0989 | 0.167 | -0.0579 | 0.624 | 4.86e-17 | 0.364 | 0.384 | -0.409 | -0.242 | -0.713 | 0.368 | -0.219 | -0.186
UGUGACAGAUUGAUAACUGAAA | 0.581 | 0.0393 | -1.77 | -0.291 | 0.185 | -1.43 | 0.919 | 1.05 | -0.136 | 1.11 | 0.173 | -0.255 | 0.555 | 0.213
UCCCACGUUGUGGCCCAGCAG | -2.41 | -0.504 | -0.668 | 0.0798 | -0.00342 | 0.793 | -0.736 | -0.461 | -0.421 | 0.591 | 0.28 | -0.0713 | 0.863 | 0.303
UACUGCAUCAGGAACUGAUUGGAU | 1.24 | 0.685 | 1.06 | -2.18 | -0.822 | -0.471 | -0.414 | 0.00207 | 0.0273 | 0.0506 | 0.358 | 0.0205 | -0.963 | -1.49
CGGGUGGAUCACGAUGCAAUUU | 0.702 | 0.00745 | 0.0585 | -0.0241 | -0.118 | 0.639 | -1.87 | -0.988 | -0.371 | 0.128 | 0.166 | 0.899 | 0.809 | -0.645
AGACCAUGGGUUCUCAUUGU | -1.2 | 0.149 | 0.673 | 1.61 | -0.2 | -2.41 | -1.1 | -1.43 | -0.0387 | -0.0186 | 0.53 | -0.214 | -0.82 | 0.304
UAAGGUGCAUCUAGUGCAGAUA | -0.171 | -0.0167 | 0.136 | -0.951 | 0.537 | -0.222 | -0.0823 | -0.0776 | -0.481 | 0.283 | 0.199 | 0.264 | 0.495 | 0.286
AACGCACUUCCCUUUAGAGUGU | 1.02 | 0.243 | 1.01 | -1.36 | -0.0921 | 0.843 | 0.153 | -0.209 | -0.716 | 0.0977 | -2.85 | 0.611 | -0.139 | 0.293
GAAGUGUGCCGUGGUGUGUCU | 0.538 | -0.199 | -1.67 | -0.942 | -0.373 | -0.0229 | -0.231 | 1.74 | -0.384 | -0.516 | -0.0876 | 1.69 | 0.832 | -0.113
UUGGUCCCCUUCAACCAGCUA | -0.167 | 0.0097 | 0.425 | -1.46 | -0.0299 | -0.159 | -0.0455 | -0.834 | 1.24 | -0.864 | 0.62 | 1.01 | -0.692 | 1.2
AAACUACUGAAAAUCAAAGAU | 0.321 | -0.411 | -0.7 | 0.0968 | 0.63 | 0.536 | -1.71 | -0.331 | -0.566 | -0.667 | 0.0375 | -0.0213 | 0.261 | -0.0901

— the supplement of paper PMC5844555
